# System: SD male rats
# Assay: Conditioned place preference (CPP) test: recovery after acquisition of methamphetamine-induced psychological dependence
# Format: in vivo
# Conditions: 0.3 mg/kg subcutaneous twice per day, after methamphetamine (2.0 mg/kg s.c.) conditioning
# From the text: Effect of Compound 1 in Promoting the Recovery Process after Acquisition of Psychological Dependence by a Stimulant Drug (Therapeutic Effect for Stimulant Drug Dependence)
# The effect of compound 1 in promoting recovery during the convalescence after the acquisition of psychological dependence by a stimulant drug was discussed using the conditioned place preference method (Suzuki, T., et al., Psychopharmacology, 102, 438, 1990; Spyraki, C., The Psychopharmacology of Addiction, p. 96, Oxford Medical Publication, New York, 1988; hereinafter called “CPP method”). As a stimulant drug forming psychological dependence, methamphetamine hydrochloride was used. Furthermore, as a therapeutic agent for drug dependence, compound 1 was used.
# For the experiment, SD male rats were used. The experimental apparatus used was a CPP apparatus having two compartments (one black, the other white). In the experiment, at first, the rats were trained for being conditioned with the sensory effect of the drug and the environments (white and black) in the apparatus for 6 days. The conditioned rats were placed and tested in the apparatus without drug administration. The drug dependence was evaluated with the residence time of the rats in the white and black boxes in the test session, as an indicator, in reference to whether the rats preferred the drug-induced sensory effect. […]
smiles,measurement,setting,value
Oc1ccc2c3c1O[C@H]1c4c(c5cc(F)cc6c5n4CCC6)C[C@@]4(O)[C@@H](C2)N(CC2CC2)CC[C@]314 [Compound 1],recovery from the state of stimulant drug dependence (CPP residence time),"7th day after start of administration, significance level 5% or less vs solvent",significant recovery
same,recovery from the state of stimulant drug dependence (CPP residence time),from the 4th day after start of administration,apparent recovery
